# Columns and labels:
# [1] = tested on: NIH3T3 murine fibroblast cells transformed with a mutated K-ras; test: Growth and soft agar colonies of K-ras transformed NIH3T3 cells in vitro; format: cell-based; conditions: concentrations at or greater than 0.5 mM
# Procedure: Additionally, NIH3T3 murine fibroblast cells transformed with a mutated K-ras (codon 12 Gly-Val) were tested in vitro and in nude mice.
# [2] = tested on: HLA-DR, CD71, CD25 and CD69 on MLR-stimulated lymphocytes; conditions: Singer et al.; cited from earlier work
# CD3-positive lymphocytes = test: Proliferation of anti-CD3-stimulated CD2-positive cells (thymidine uptake); format: cell-based; conditions: CD2-positive T-cells, adsorbed monoclonal antibody 64.1, harvested after 5 days; IL-1 or TNF failed to reverse; FIG. 21
# Procedure: In these experiments, freshly isolated, CD2-positive cells were stimulated by a solid-phase monoclonal antibody to acquire a CD3 phenotype, and then PTX was added. […] The block in proliferation could not be overcome by addition of either tumor necrosis factor (FIGS. 20 and 21) or IL-1 (FIG. 21). […] The cytokines and PTX were added at culture inception and the cells were harvested after 5 days.
# T cell proliferation = conditions: Singer et al., cited from earlier work
# [3] = tested on: IL-8 encoding mRNA in U937 and THP1 monocytic cell lines; test: Northern blot of IL-8 mRNA after lipopolysaccharide or GM-CSF; format: cell-based; conditions: induced by lipopolysaccharide or GM-CSF
# Procedure: The murine fibrosarcoma cell line, L929, was also tested as an indicator for assays of TNF cytotoxicity. Cell growth was assayed by crystal violet staining using optical density as a measure of growth. […] Finally, two monocytic cell lines, U937 and THP1, were used to test the effect of pentoxifylline on the […] of the cytokine IL-8. The cell lines in culture were induced to upregulate IL-8 production by lipopolysaccharide or GM-CSF.
# [4] = tested on: PA and DAG levels in human glomerular mesangial cells; test: Invention assay: HPLC of lipids from IL-1-stimulated mesangial cells; format: cell-based
# Procedure: The compounds of Formula I are shown to modulate the effects of primary stimuli which elevate levels of the relevant subspecies of PA and DAG using the assay system of the invention. In general for the assay, the cells to be tested are first incubated with the primary stimulating agent for various time periods and fixed in ice-cold methanol. The lipids are extracted using, for example, chloroform:methanol 2:1 (v/v), and the extracts are then subjected to HPLC as described by Bursten and Harris, Biochemistry (1991)------. In this method, a Rainin mu-Porasil column is used with a 3:4 hexane:propanol organic carrier and a 1-10% water gradient during the first 10 minutes of separation. Detection of the peaks in the elution pattern is by absorption in the range of ultraviolet which detects isolated double bonds. Thus, the relevant peaks of unsaturated PA and DAG are shown in the elution pattern. It is important to note that the assay method permits discrimination between various forms of PA and DAG so that those relevant to the pathway affected by the compounds of Formula I can be measured directly. Confirmation of the nature of the acyl substituents of these components is accomplished using fast-atom bombardment mass spectroscopy. Thus, the relevant unsaturated (non-arachidonic) PA and DAG subspecies may be detected. The time periods employed are 5-60 seconds after stimulation with the primary stimulus, such as a cytokine. This technique permits assessment of the levels of various lipid components as a function of time.
# To test the effect of the compounds of the invention, the candidate compound is included in the initial incubation at various concentrations. Fixing, extraction and HPLC are conducted as above. The effect of the candidate compound is then reflected in a lowering of the relevant PA and DAG levels as compared to the cells without candidate in the control as illustrated hereinbelow.
# (§1) Human glomerular mesangial cells were incubated with IL-1 for various time periods of 5-60 seconds and the cells were fixed in ice-cold methanol, and the lipids extracted using chloroform:methanol 2:1 (v/v). It is very important that the fixing/extraction process be conducted quickly so that the decomposition of unstable intermediates is halted.
# The extracts were subjected to HPLC on a Rainin mu-Porasil column with a 3:4 hexane:propanol organic carrier and a 1-10% water gradient during the first 10 minutes of separation. The relative concentration of each lipid species is determined using absorption at 206 nm (A206), which follows unsaturated acyl content of lipid species. […] The absolute mass of each lipid species is determined by lisolation of the lipid using a fraction collector, repurification on the HPLC column. […] Protein concentration is determined using the Bradford technique. […]
# [5] = tested on: human leukemic cell line (Mo7e); test: GM-CSF-stimulated colony formation in semisolid medium; format: cell-based; conditions: rhGM-CSF; colonies counted after 10 days; FIG. 14
# Procedure: The human leukemic cell line (Mo7e) is dependent on added granulocyte-macrophage colony-stimulating factor (GM-CSF) for growth. Mo7e cells were cultured in semisolid medium with and without pentoxifylline (PTX) and rhGM-CSF. Colonies were counted 10 days after culture initiation under an inverted microscope. […] PTX thus prevents the up-regulation of activation-associated genes which inhibit proliferation.
# [6] = tested on: NIH3T3 cell line (D5C3) transformed with temperature-sensitive v-abl mutant gene; test: Blocking transformed phenotype of D5C3 cells; format: cell-based, murine; conditions: 1 mM pentoxifylline; 33° C., 5 days
# Procedure: An NIH3T3 cell line ([MUT]) provides target cells which were transformed by an activated oncogene. The cells were transformed with a temperature-sensitive v-abl mutant gene. This mutant gene encodes a temperature-sensitive v-abl protein that produces a non-oncogenic product at a non-permissive temperature due to a lack of tyrosine phosphorylation. The cells were incubated at the permissive temperature (33° C.) for 5 days after passage with and without pentoxifylline (1 mM).
# [7] = tested on: IL-6 transcripts in bone marrow stromal cells; test: Northern blot of IL-6 transcripts; format: cell-based; conditions: three-hour exposure, increasing concentrations; FIG. 16
# [8] = tested on: lyso-PA acyl transferase (LPAAT); test: Invention assay: HPLC of lipids from IL-1-stimulated mesangial cells, LPAAT; format: cell-based, human; conditions: compared with 0.5 mM; subsequent determinations
# Procedure: (§2) This example also illustrates the method of the invention.
# as §1
# (§3) The extracts were subjected to HPLC on a Rainin mu-Porasil column with a 3:4 hexane:propanol organic carrier and a 1-10% water gradient during the first 10 minutes of separation. The relative concentration of each lipid species is determined using absorption at 206 nm (A206), which follows unsaturated acyl content of lipid species. […] The absolute mass of each lipid species is determined by lisolation of the lipid using a fraction collector, repurification on the HPLC column. Determination of phospholipid phosphorus is as nmoles/mg cellular protein. Protein concentration is determined using the Bradford technique.
# [9] = tested on: SV40 T-antigen-transformed human kidney mesangial cells; test: Tritiated thymidine uptake of transformed mesangial cells with rhIL-1 or TNFα; format: cell-based
# Procedure: SV40 T-antigen-transformed human kidney mesangial cells were cultured under standard conditions with rhIL-1 or with TNFα with and without pentoxifylline (PTX). Transformed mesangial cells grow independently of added growth factors, but IL-1 and TNFα are the normal proliferative signals for mesangial cells. As was shown in Example 1, when IL-1 is added to kidney mesangial cells, within 30 seconds LPAAT and PAPH are activated; the effect of both of these enzymes is inhibited by pentoxifylline at 1 mM. In this experiment, the growth of the treated cells was measured using tritiated thymidine uptake.
# [10] = tested on: phosphatidic acid phosphohydrolase (PAPH); test: Invention assay: HPLC of lipids from IL-1-stimulated mesangial cells, PAPH; format: cell-based, human; conditions: 0.5 mM; subsequent determinations
# Procedure: as §2, §1, §3
# TNFα = conditions: Singer et al.; cited from earlier work
# [11] = tested on: TNFα transcripts in U937 cells; test: Northern blot of TNFα transcripts after LPS induction; format: cell-based; conditions: 1 mM PTX; LPS three hours; FIG. 15
# [12] = tested on: TNF, IL-2 and IL-2 receptor transcripts in CD3 positive lymphocytes; test: Northern blots of CD3 positive lymphocytes in a mixed lymphocyte reaction; format: cell-based
# [13] = tested on: Steel factor transcripts in marrow stromal cell lines; test: Northern blot of Steel factor transcripts; format: cell-based; conditions: three-hour incubation; passaged or cloned (CDCL) marrow stromal cell lines; FIGS. 17 and 18
smiles,measurement,setting,value
CC(=O)CCCCn1c(=O)c2c(ncn2C)n(C)c1=O [Pentoxifylline],anchorage-independent growth in soft agar,[1],suppression of anchorage-independent growth
same,growth in vitro,[1],inhibition of growth
same,"expression of cell surface antigens HLA-DR, CD71, CD25, CD69",[2],decreased expression
same,thymidine uptake,CD3-positive lymphocytes,diminished by PTX in an concentration-dependent manner
same,proliferative response in a mixed lymphocyte culture,T cell proliferation; PTX added after triggering lymphocytes,still effective in blocking a proliferative response
same,proliferation of lymphocytes induced by anti-CD3,T cell proliferation; exogenous recombinant TNF or IL-1 did not reverse,suppressed proliferation
same,synthesis of IL-8 (mRNA),[3],"did not inhibit, and indeed may upregulate"
same,cyclical formation of PA and conversion of PA to DAG (HPLC),"[4]; 100 μM pentoxifylline, 10^-11 M IL-1, 15- and 60-second points",no change
same,conversion of PA to DAG (HPLC),"[4]; 500 μM pentoxifylline, IL-1, 15 second time point",slight attenuation
same,elevation of PA and DAG by IL-1 (HPLC),"[4]; 1 mM PTX, all time points (15-60 seconds)",abolishes the elevation of PA and DAG
same,GM-CSF-stimulated growth of colonies,[5],enhanced GM-CSF-stimulated growth of colonies
same,appearance of cells,[6],"predominantly non-transformed, fibroblastic appearance"
same,production of IL-6 transcripts,[7],increased production of IL-6 transcripts
same,inhibitory effect on LPAAT,[8],evident only at higher concentrations
same,proliferative effect of TNF (thymidine uptake),"[9]; TNFα, FIG. 13B",enhances the proliferative effect of TNF
same,growth stimulated by IL-1 (thymidine uptake),"[9]; rhIL-1, FIG. 13A",arrested growth
same,inhibition of PAPH,[10],inhibits PAPH
same,effect on secretion of TNFα versus TNF transcription,TNFα,greater effect on secretion of TNFα
same,TNF RNA in response to LPS stimulation,[11],undetectable level
same,TNF transcripts,[12]; FIG. 19A,suppression
same,IL-2 receptor transcripts,[12]; FIG. 19C,suppression
same,levels of Steel factor transcripts,[13],increases

# Reference: patent US5585380A, “Modulation of cellular response to external stimuli” (priority 1995, dated 1996)
